Experimental data published in ChEMBL document CHEMBL1143399, “A small-molecule nitroimidazopyran drug candidate for the treatment of tuberculosis” (Nature, 2000).
The source made the active and inactive calls. The calls are words filed in the database; no cut-off is given here.

How the values were obtained:
Format in all cases: functional, organism-based
Conditions in all cases: variant bovis BCG
[1] = test system: Mycobacterium tuberculosis; assay: Inhibition of protein synthesis in log phase Mycobacterium bovis BCG assessed as [35S] incorporation after 3 hrs
[2] = test system: Mycobacterium tuberculosis; assay: Inhibition of lipid synthesis in log phase Mycobacterium bovis BCG assessed as [14C] acetate incorporation after 3 hrs by chromatography
[3] = test system: Mycobacterium tuberculosis; assay: Inhibition of nucleic acid synthesis in Mycobacterium bovis BCG

Compound: O=[N+]([O-])c1cn2c(n1)OC[C@@H](OCc1ccc(OC(F)(F)F)cc1)C2 [PRETOMANID]
- Activity [1]: Active
- Activity [2]: inactive
- Activity [3]: inactive
